PMC8330742, “New benzothieno[2,3-c]pyridines as non-steroidal CYP17 inhibitors: design, synthesis, anticancer screening, apoptosis induction, and in silico ADME profile studies” (Journal of Enzyme Inhibition and Medicinal Chemistry, 2021)

Experiments:
CAKI-1 = test: NCI-60 SRB screen; type: cell-based, human; conditions: Homo sapiens; CAKI-1; single dose 10^−5 M; read-out: Growth inhibition (%)
NCI-H226 = test: NCI-60 SRB screen; type: cell-based, human; conditions: Homo sapiens; NCI-H226; single dose 10^−5 M; read-out: Growth inhibition (%)
SF-268 = test: NCI-60 SRB screen; type: cell-based, human; conditions: Homo sapiens; SF-268; single dose 10^−5 M; read-out: Growth inhibition (%)
SF-295 = test: NCI-60 SRB screen; type: cell-based, human; conditions: Homo sapiens; SF-295; single dose 10^−5 M; read-out: Growth inhibition (%)
SK-MEL-28 = test: NCI-60 SRB screen; type: cell-based; conditions: Homo sapiens; SK-MEL-28; single dose 10^−5 M; read-out: Growth inhibition (%)
SK-MEL-2 = test: NCI-60 SRB screen; type: cell-based, human; conditions: Homo sapiens; SK-MEL-2; single dose 10^−5 M; read-out: Growth inhibition (%)
ACHN = test: NCI-60 SRB screen; type: cell-based; conditions: Homo sapiens, single dose 10^−5 M, read-out: Growth inhibition (%)
LOX IMVI = test: NCI-60 SRB screen; type: cell-based, human; conditions: Homo sapiens, single dose 10^−5 M, read-out: Growth inhibition (%)
[1] = test system: panel of 60 cancer cell lines; test: NCI-60 SRB screen, mean or range over the panel; type: cell-based, human; conditions: Homo sapiens; mean over the cell lines; single dose 10^−5 M; read-out: Mean growth inhibition (%)
NCI/ADR-RES = test: NCI-60 SRB screen; type: cell-based, human; conditions: Homo sapiens, single dose 10^−5 M, read-out: Growth inhibition (%)
SN12C = test: NCI-60 SRB screen; type: cell-based, human; conditions: Homo sapiens, SN12C; SN 12 C; single dose 10^−5 M; read-out: Growth inhibition (%)
HT-29 = test: NCI-60 SRB screen; type: cell-based; conditions: Homo sapiens; HT-29; single dose 10^−5 M; read-out: Growth inhibition (%)
K-562 = test: NCI-60 SRB screen; type: cell-based, human; conditions: Homo sapiens, K562; K-562; single dose 10^−5 M; read-out: Growth inhibition (%)
UACC-257 = test: NCI-60 SRB screen; type: cell-based, human; conditions: Homo sapiens, UACC-257; UACC-275 (so in the source); single dose 10^−5 M; read-out: Growth inhibition (%)
NCI-H460 = test: NCI-60 SRB screen; type: cell-based, human; conditions: Homo sapiens; NCI-H460; single dose 10^−5 M; read-out: Growth inhibition (%)
HCT-116 = test: NCI-60 SRB screen; type: cell-based, human; conditions: Homo sapiens; HCT-116; single dose 10^−5 M; read-out: Growth inhibition (%)
HL-60(TB) = test: NCI-60 SRB screen; type: cell-based, human; conditions: Homo sapiens; HL-60 (TB); single dose 10^−5 M; read-out: Growth inhibition (%)
OVCAR-4 = test: NCI-60 SRB screen; type: cell-based, human; conditions: Homo sapiens; OVCAR-4; single dose 10^−5 M; read-out: Growth inhibition (%)
HOP-92 = test: NCI-60 SRB screen; type: cell-based, human; conditions: Homo sapiens; HOP-92; single dose 10^−5 M; read-out: Growth inhibition (%)
UO-31 = test: NCI-60 SRB screen; type: cell-based, human; conditions: Homo sapiens; UO-31; single dose 10^−5 M; read-out: Growth inhibition (%)
M14 = test: NCI-60 SRB screen; type: cell-based, human; conditions: Homo sapiens; M14; single dose 10^−5 M; read-out: Growth inhibition (%)
TK-10 = test: NCI-60 SRB screen; type: cell-based, human; conditions: Homo sapiens; TK-10; single dose 10^−5 M; read-out: Growth inhibition (%)
HCC-2998 = test: NCI-60 SRB screen; type: cell-based, human; conditions: Homo sapiens; HCC-2998; single dose 10^−5 M; read-out: Growth inhibition (%)
MOLT-4 = test: NCI-60 SRB screen; type: cell-based; conditions: Homo sapiens; MOLT-4; single dose 10^−5 M; read-out: Growth inhibition (%)
COLO 205 = test: NCI-60 SRB screen; type: cell-based, human; conditions: Homo sapiens; COLO 205; single dose 10^−5 M; read-out: Growth inhibition (%)
UACC-62 = test: NCI-60 SRB screen; type: cell-based, human; conditions: Homo sapiens; UACC-62; single dose 10^−5 M; read-out: Growth inhibition (%)
NCI-H522 = test: NCI-60 SRB screen; type: cell-based, human; conditions: Homo sapiens; NCI-H522; single dose 10^−5 M; read-out: Growth inhibition (%)
RXF 393 = test: NCI-60 SRB screen; type: cell-based, human; conditions: Homo sapiens; RXF 393; single dose 10^−5 M; read-out: Growth inhibition (%)
NCI-H322M = test: NCI-60 SRB screen; type: cell-based, human; conditions: Homo sapiens, single dose 10^−5 M, read-out: Growth inhibition (%)
SK-MEL-5 = test: NCI-60 SRB screen; type: cell-based, human; conditions: Homo sapiens; SK-MEL-5; single dose 10^−5 M; read-out: Growth inhibition (%)
SR = test: NCI-60 SRB screen; type: cell-based; conditions: Homo sapiens, single dose 10^−5 M, read-out: Growth inhibition (%)
SW-620 = test: NCI-60 SRB screen; type: cell-based; conditions: Homo sapiens; SW-620; single dose 10^−5 M; read-out: Growth inhibition (%)
A549/ATCC = test: NCI-60 SRB screen; type: cell-based, human; conditions: Homo sapiens, single dose 10^−5 M, read-out: Growth inhibition (%)
HOP-62 = test: NCI-60 SRB screen; type: cell-based, human; conditions: Homo sapiens; HOP-62; single dose 10^−5 M; read-out: Growth inhibition (%)
KM12 = test: NCI-60 SRB screen; type: cell-based, human; conditions: Homo sapiens; KM12; single dose 10^−5 M; read-out: Growth inhibition (%)
OVCAR-8 = test: NCI-60 SRB screen; type: cell-based, human; conditions: Homo sapiens; OVCAR-8; single dose 10^−5 M; read-out: Growth inhibition (%)
SK-OV-3 = test: NCI-60 SRB screen; type: cell-based, human; conditions: Homo sapiens; SK-OV-3; single dose 10^−5 M; read-out: Growth inhibition (%)
MDA-MB-435 = test: NCI-60 SRB screen; type: cell-based; conditions: Homo sapiens, MDA-MB-435, read-out: Growth inhibition (%)
NCI-H23 = test: NCI-60 SRB screen; type: cell-based, human; conditions: Homo sapiens; NCI-H23; single dose 10^−5 M; read-out: Growth inhibition (%)
IGROV1 = test: NCI-60 SRB screen; type: cell-based, human; conditions: Homo sapiens, IGROV-1; IGROV1; single dose 10^−5 M; read-out: Growth inhibition (%)
EKVX = test: NCI-60 SRB screen; type: cell-based, human; conditions: Homo sapiens, single dose 10^−5 M, read-out: Growth inhibition (%)
HCT-15 = test: NCI-60 SRB screen; type: cell-based, human; conditions: Homo sapiens; HCT-15; single dose 10^−5 M; read-out: Growth inhibition (%)
786-0 = test: NCI-60 SRB screen; type: cell-based; conditions: Homo sapiens; 786-0; single dose 10^−5 M; read-out: Growth inhibition (%)
OVCAR-3 = test: NCI-60 SRB screen; type: cell-based, human; conditions: Homo sapiens; OVCAR-3; single dose 10^−5 M; read-out: Growth inhibition (%)

Compound `O=C1NC(c2cccc([N+](=O)[O-])c2)c2sc3c(F)cccc3c2C1N1CCOCC1` (centres unmarked) [Compound 6b, 8-Fluoro-4-morpholino-1(3-nitrophenyl)-1,2-dihydro[1]benzothieno[2,3-c]pyridin-3(4H)-one] has an inhibition at 10 µM (CAKI-1) of 23%, an inhibition at 10 µM (NCI-H226) of 19.4% and an inhibition at 10 µM (SF-268) of 6.1%. It also gave an inhibition at 10 µM (SF-295) of 1.1%, an inhibition at 10 µM (SK-MEL-28) of -11.5% and an inhibition at 10 µM (SK-MEL-2) of -12.7%. It also gave an inhibition at 10 µM (ACHN) of 4.34%, an inhibition at 10 µM (LOX IMVI) of -0.6% and an inhibition at 10 µM [1] of 3.19%. It also gave an inhibition at 10 µM (NCI/ADR-RES) of 1.78%, an inhibition at 10 µM (SN12C) of 2.85% and an inhibition at 10 µM (HT-29) of 3.1%. It also gave an inhibition at 10 µM (K-562) of 6.63%, an inhibition at 10 µM (UACC-257) of -10.7% and an inhibition at 10 µM (NCI-H460) of 0.21%. It also gave an inhibition at 10 µM (HCT-116) of 12.5%, an inhibition at 10 µM (HL-60(TB)) of 3% and an inhibition at 10 µM (OVCAR-4) of 0.3%. For the same compound, the inhibition at 10 µM (HOP-92) was 13.3%, the inhibition at 10 µM (UO-31) was 31.8% and the inhibition at 10 µM (M14) was -1.23%. For the same compound, the inhibition at 10 µM (TK-10) was -28.2%, the inhibition at 10 µM (HCC-2998) was -9.62% and the inhibition at 10 µM (MOLT-4) was 7.9%. The inhibition at 10 µM (COLO 205) was -10.9%, the inhibition at 10 µM (UACC-62) was 3.55% and the inhibition at 10 µM (NCI-H522) was 10.4%. The inhibition at 10 µM (RXF 393) was 6.95%, the inhibition at 10 µM (NCI-H322M) was -2.43% and the inhibition at 10 µM (SK-MEL-5) was 0.57%. The inhibition at 10 µM (SR) was 14.4%, the inhibition at 10 µM (SW-620) was 7.48% and the inhibition at 10 µM (A549/ATCC) was -0.83%. The inhibition at 10 µM (HOP-62) was 12.7%, the inhibition at 10 µM (KM12) was 2.35% and the inhibition at 10 µM (OVCAR-8) was 2.6%. The inhibition at 10 µM (SK-OV-3) was 0.4%, the inhibition at 10 µM (MDA-MB-435) was -9.63% and the inhibition at 10 µM (NCI-H23) was 5.78%. For the same compound, the inhibition at 10 µM (IGROV1) was 21.5%, the inhibition at 10 µM (EKVX) was 2.98% and the inhibition at 10 µM (HCT-15) was -4.99%. It also gave an inhibition at 10 µM (786-0) of -11.1% and an inhibition at 10 µM (OVCAR-3) of 1.9%.
